Data from ChEMBL document CHEMBL3885881, “DrugMatrix”.

Species: Rattus norvegicus
Experiment: DrugMatrix - Regimen: Daily Repeat
Assay type: toxicity, organism-based, Sprague-Dawley
Parameters: regimen Daily Repeat, gender Male, age 6-8 weeks
Details: in vivo, po, route oral GAVAGE, vehicle .5 % CMC; for BASOPHIL / EOSINOPHIL / ERYTHROCYTE COUNT / HEMATOCRIT / HEMOGLOBIN / LYMPHOCYTE / MEAN CORPUSCULAR HEMOGLOBIN / MEAN CORPUSCULAR HEMOGLOBIN CONCENTRATION / MEAN CORPUSCULAR VOLUME / MONOCYTE / NEUTROPHIL / PLATELET COUNT: tissue Blood; for ALANINE AMINOTRANSFERASE / ALBUMIN / ALKALINE PHOSPHATASE / ASPARTATE AMINOTRANSFERASE / BLOOD UREA NITROGEN / CHOLESTEROL / CREATINE PHOSPHOKINASE / CREATININE / GLUCOSE / PHOSPHORUS / POTASSIUM / SODIUM / TOTAL BILIRUBIN / TOTAL PROTEIN: tissue Plasma
[1] = 0 mg/kg, 72 h, dose level Control, time 3 day
[2] = 0 mg/kg, 120 h, dose level Control, time 5 day
[3] = 20 mg/kg, 72 h, dose level Low, time 3 day
[4] = 20 mg/kg, 120 h, dose level Low, time 5 day

CN(C)CCC=C1c2ccccc2COc2ccccc21 [DOXEPIN]
BASOPHIL [1]: 0%
EOSINOPHIL [1]: 0.33%
ERYTHROCYTE COUNT [1]: 6.2 x10E6/uL
HEMATOCRIT [1]: 38.08%
HEMOGLOBIN [1]: 14.92 G/DL
LYMPHOCYTE [1]: 76%
MEAN CORPUSCULAR HEMOGLOBIN [1]: 24.1 pg
MEAN CORPUSCULAR HEMOGLOBIN CONCENTRATION [1]: 39.17 G/DL
MEAN CORPUSCULAR VOLUME [1]: 61.48 fL
MONOCYTE [1]: 3.83%
NEUTROPHIL [1]: 19.83%
PLATELET COUNT [1]: 1327.5 x10E3/uL
ALANINE AMINOTRANSFERASE [1]: 40.17 u/L
ALBUMIN [1]: 4.07 G/DL
ALKALINE PHOSPHATASE [1]: 372 u/L
ASPARTATE AMINOTRANSFERASE [1]: 67.17 u/L
BLOOD UREA NITROGEN [1]: 18.83 mg/dL
CHOLESTEROL [1]: 78.17 mg/dL
CREATINE PHOSPHOKINASE [1]: 149.17 u/L
CREATININE [1]: 0.57 mg/dL
GLUCOSE [1]: 185.17 mg/dL
PHOSPHORUS [1]: 11.43 mg/dL
POTASSIUM [1]: 6.78 MEQ/L
SODIUM [1]: 152.83 MEQ/L
TOTAL BILIRUBIN [1]: 0.4 mg/dL
TOTAL PROTEIN [1]: 6.87 G/DL
BASOPHIL [2]: 0%
EOSINOPHIL [2]: 0%
ERYTHROCYTE COUNT [2]: 6.05 x10E6/uL
HEMATOCRIT [2]: 36.55%
HEMOGLOBIN [2]: 14.7 G/DL
LYMPHOCYTE [2]: 86.83%
MEAN CORPUSCULAR HEMOGLOBIN [2]: 24.37 pg
MEAN CORPUSCULAR HEMOGLOBIN CONCENTRATION [2]: 40.32 G/DL
MEAN CORPUSCULAR VOLUME [2]: 60.47 fL
MONOCYTE [2]: 0.83%
NEUTROPHIL [2]: 12.33%
PLATELET COUNT [2]: 1177 x10E3/uL
ALANINE AMINOTRANSFERASE [2]: 41.83 u/L
ALBUMIN [2]: 3.75 G/DL
ALKALINE PHOSPHATASE [2]: 377.5 u/L
ASPARTATE AMINOTRANSFERASE [2]: 60.83 u/L
BLOOD UREA NITROGEN [2]: 16 mg/dL
CHOLESTEROL [2]: 67.83 mg/dL
CREATINE PHOSPHOKINASE [2]: 120.33 u/L
CREATININE [2]: 0.6 mg/dL
GLUCOSE [2]: 167.67 mg/dL
PHOSPHORUS [2]: 10.03 mg/dL
POTASSIUM [2]: 6.68 MEQ/L
SODIUM [2]: 150.5 MEQ/L
TOTAL BILIRUBIN [2]: 0.57 mg/dL
TOTAL PROTEIN [2]: 6.25 G/DL
BASOPHIL [3]: 0%
EOSINOPHIL [3]: 0%
ERYTHROCYTE COUNT [3]: 5.9 x10E6/uL
HEMATOCRIT [3]: 36.4%
HEMOGLOBIN [3]: 14.15 G/DL
LYMPHOCYTE [3]: 83%
MEAN CORPUSCULAR HEMOGLOBIN [3]: 24 pg
MEAN CORPUSCULAR HEMOGLOBIN CONCENTRATION [3]: 38.9 G/DL
MEAN CORPUSCULAR VOLUME [3]: 61.75 fL
MONOCYTE [3]: 0%
NEUTROPHIL [3]: 17%
PLATELET COUNT [3]: 1287.5 x10E3/uL
ALANINE AMINOTRANSFERASE [3]: 38.33 u/L
ALBUMIN [3]: 3.6 G/DL
ALKALINE PHOSPHATASE [3]: 352.33 u/L
ASPARTATE AMINOTRANSFERASE [3]: 56.67 u/L
BLOOD UREA NITROGEN [3]: 11.67 mg/dL
CHOLESTEROL [3]: 72.67 mg/dL
CREATINE PHOSPHOKINASE [3]: 139.33 u/L
CREATININE [3]: 0.53 mg/dL
GLUCOSE [3]: 179.67 mg/dL
PHOSPHORUS [3]: 11.8 mg/dL
POTASSIUM [3]: 6.33 MEQ/L
SODIUM [3]: 150 MEQ/L
TOTAL BILIRUBIN [3]: 0.2 mg/dL
TOTAL PROTEIN [3]: 5.83 G/DL
BASOPHIL [4]: 0%
EOSINOPHIL [4]: 0%
ERYTHROCYTE COUNT [4]: 6.16 x10E6/uL
HEMATOCRIT [4]: 37.07%
HEMOGLOBIN [4]: 14.67 G/DL
LYMPHOCYTE [4]: 91.67%
MEAN CORPUSCULAR HEMOGLOBIN [4]: 23.87 pg
MEAN CORPUSCULAR HEMOGLOBIN CONCENTRATION [4]: 39.57 G/DL
MEAN CORPUSCULAR VOLUME [4]: 60.23 fL
MONOCYTE [4]: 0.33%
NEUTROPHIL [4]: 8%
PLATELET COUNT [4]: 1231.33 x10E3/uL
ALANINE AMINOTRANSFERASE [4]: 36 u/L
ALBUMIN [4]: 3.67 G/DL
ALKALINE PHOSPHATASE [4]: 311.33 u/L
ASPARTATE AMINOTRANSFERASE [4]: 55.67 u/L
BLOOD UREA NITROGEN [4]: 12.67 mg/dL
CHOLESTEROL [4]: 71.33 mg/dL
CREATINE PHOSPHOKINASE [4]: 153 u/L
CREATININE [4]: 0.6 mg/dL
GLUCOSE [4]: 161.33 mg/dL
PHOSPHORUS [4]: 12.47 mg/dL
POTASSIUM [4]: 6.8 MEQ/L
SODIUM [4]: 151.67 MEQ/L
TOTAL BILIRUBIN [4]: 0.43 mg/dL
TOTAL PROTEIN [4]: 6.17 G/DL
